Experiment [1] concerns HCT116. Kind of experiment: MTS antiproliferative assay, HCT116 (with or without added metal ions). The format is cell-based, human. The following applies: 96 h. The procedure: (§1) The cells were seeded in 96-well plates (Nunc) at a density of 3,500 cells/well (HCT116 and MCF-7) and 3,000 cells/well (NHDF) and incubated at 37° C for 24 h. The assay was performed following a 96 h incubation with varying concentrations of the compounds that were being tested. Then, 20 µL of CellTiter 96® AQueous One Solution-MTS (Promega) was added to each well (with 100 µL DMEM without phenol red) and incubated for 1 h at 37° C. The optical densities of the samples were analyzed at 490 nm using a multi-plate reader (Synergy 4, Bio Tek). Results were expressed as a percentage of the control and calculated as the inhibitory concentration (IC50) values (using GraphPad Prism 5). The IC50 parameter was defined as the compound concentration that was necessary to reduce the proliferation of cells to 50% of the untreated control. Each individual compound was tested in triplicate in a single experiment with each experiment being repeated three or four times.
(§2) The HCT116 and MCF-7 cells were seeded in 96-well plates (Nunc) at a density of 3,500 cells/well and incubated at 37° C for 24 h. The MTS assay was performed following a 96 h incubation with varying concentrations of the tested compounds. Additionally, a 20 µM solution of CuSO4, FeSO4 or FeCl3 was added into wells with the tested compounds. The results were expressed as a percentage of the control and calculated as the inhibitory concentration (IC50) values using GraphPad Prism 5. Each individual compound was tested in triplicate in a single experiment with each experiment being repeated three times.
A general note: Formazan colour is commonly taken as a measure of viable cells.

Experiment [2] has as its system MCF-7. In words: MTS antiproliferative assay, MCF-7 (with or without added metal ions). The format is cell-based, human. The procedure:
as §1, §2

Experiment [3] relates to HCT116 cells. In words: Time dependent measurement of ROS level. The format is cell-based, human. The note with it: 1 µM; 3, 6, 9, 12, 24 h. The protocol:
To determine the intracellular levels of ROS, HCT116 cells were seeded onto black 96-well plates (Corning) at a density of 9,000 cells/well and incubated at 37° C. After an overnight incubation, the solutions of the tested compounds: 1a-c, 2 a-b, 3 a-c, Dp44mT (1 μM) and DOX (5 μM) were added and incubated for 3, 6, 9, 12, and 24 h in a kinetic experiment. The generation of ROS was measured using a CellROX® Green Reagent (Molecular Probes™). Additionally, the quantity of cells in each well was determined using Hoechst 33342 (Molecular Probes™). The solutions of the tested compounds were removed and 100 µL of CellROX Green Reagent and Hoechst 33342 at a final concentration of 5 μM were added to each well. Then, the cells were incubated for 30 min at 37° C. The fluorescence was measured using a multi-plate reader (Synergy 4, Bio Tek) at 485 nm excitation and a 520 nm emission for CellROX Green Reagent and a 345 nm excitation laser and a 485 nm emission filter for Hoechst 33342. The experiments were performed three to four times. ROS levels were expressed as the percentage of the control cells level.

For experiment [4], the system named is MnSOD. In words: mRNA expression (Real-Time PCR) of MnSOD. It is filed as cell-based, human. The following applies: HCT116, TSC 1 µM, 12 or 24 h. The protocol: (§3) The HCT116 cells were seeded in 3 cm Petri dishes (Nunc) at a density of 0.5·10^6 cells/well and incubated overnight. Next, the medium was removed and solutions of TSC (1 μM) and DOX (5 μM) were added. After 12 or 24 h, total RNA was isolated from the cells using TRIzol Reagent (Ambion) according to the manufacturer’s instructions. cDNA synthesis was performed with 5 μg of total RNA using a GoScript™ Reverse Transcriptase kit (Promega) and Oligo(dT)23 Primers (Sigma). The Real-Time PCR was performed with a CTX96 Touch™ Real-Time PCR Detection System (Biorad) in a 20 μL reaction volume. The reaction consisted of PowerUp™ SYBR® Green Master Mix (Applied Biosystems), a primer pair mix (0.5 μM each) and 1 μL of cDNA. All primer pair sequences were purchased from Sigma-Aldrich and are listed in Supplementary Table 2. The experiment was performed under the following conditions: initial denaturation at 95° C for 120 sec; followed by 40 denaturation cycles at 95° C, 15 sec; annealing (primer-specific temperature for 30 sec) and extension at 72° C for 60 sec. Data was analyzed based on a comparison of the expression of the target genes to a reference gene – β-actin, using the 2^–ΔΔCT method. The experiments were performed at least three times.

The subject of experiment [5] is Ndrg1. In words: mRNA expression (Real-Time PCR) of Ndrg1. It is filed as cell-based, human. The following applies: HCT116, TSC 1 µM, 24 h. The protocol: as §3
In experiment [6] the test system is p21. Kind of experiment: Western blot of p21. It is filed as cell-based, human. The note with it: HCT116, 1 µM. The procedure: (§4) The HCT116 cells were seeded in 3 cm Petri dishes (Nunc) at a density of 0.5·10^6 cells/well and incubated overnight. The next day, solutions of TSC (1 μM) and DOX (5 μM) were added and the cells incubated for 24 or 48 h. Cells were harvested by trypsinization and washed with cold PBS. Next, the cells were centrifuged and suspended in an RIPA buffer (Thermo Scientific) containing Halt Protease Inhibitor Cocktail (Thermo Scientific), Halt Phosphatase Inhibitor Cocktail (Thermo Scientific) along with 0.5 M EDTA and lysed for 20 min on ice. Then, the lysates were sonicated, centrifuged at 10,000 rpm for 10 min at 4° C and the supernatants were collected for further analysis. The protein concentration was determined using a Micro BCA™ Protein Assay Kit (Thermo Scientific) according to the manufacturer’s instructions. Equal amounts of the proteins (20 μg) were electrophoresed on SDS-Page gels and transferred onto a nitrocellulose membranes. The membranes were blocked in 5% non-fat milk prepared in PBS containing 0.1% Tween-20 (TPBS) for 1 h. After blocking, the membranes were incubated with specific primary antibodies: cdc2 (#POH1, Cell Signaling), p21^Waf1/Cip1 (#12D1, Cell Signaling), p53 (#1C12, Cell Signaling) and β-Actin (#8H10D10, Cell Signaling) overnight at 4° C, then washed and incubated with horseradish peroxidase (HRP)-conjugated secondary antibodies for 1h at room temperature. All of antibodies were diluted 1:1000 in 5% milk in TPBS. Finally, the membranes were washed and incubated with a SuperSignal™ West Pico Chemiluminescent Substrate (Thermo Scientific). The chemiluminescence signals were captured using a ChemiDoc™ XRS+ System (BioRad). The experiments were performed at least three times. Densitometric analysis was performed using ImageJ 1.41 software (Wayne Rasband, National Institutes of Health, USA).
Background: A western blot detects proteins with antibodies after separation by electrophoresis.

The test system of experiment [7] is cdc2. In words: Western blot of cdc2. It is filed as cell-based, human. The note with it: HCT116, 1 µM. The protocol:
as §4

Experiment [8] concerns calf-thymus DNA (CT-DNA). In words: Intercalation, absorption spectra with CT-DNA. The format is binding. The protocol: For the DNA binding studies, Calf-thymus DNA (CT-DNA) was purchased from Sigma Aldrich. The lyophilized CT-DNA was dissolved in 10 mM Tris-HCl, pH 7.9, mixed gently and left overnight at 4° C. The purity of the CT-DNA solution was determined by measuring the ratio of UV absorbance at 260 and 280 nm. […] Then, the concentration of CT-DNA was determined from the absorbance at 260 nm using an extinction coefficient of 6600 M^–1cm^–1. The tested TSC and DOX were dissolved in DMSO to a concentration of 8.35 mM, which was then used as the stock solution for preparing the various concentrations (25, 12.5, 6 and 3 µM) in 1 mL in 10 mM of Tris-HCl (pH 7.9). Afterwards, 18 µM CT-DNA was added to the prepared solutions, which were incubated for 1.5 h at 37° C with occasional vortexing. The absorption spectra were measured using a Hitachi U-2900 spectrophotometer in range of 200–500 nm. All absorption spectra were imported and compared in OriginPro 8.0.

Experiment [9] has as its system HCT116. Also noted: method as in PMID 25329549. The following applies: 96 h incubation, MTS; cited from earlier work.
Experiment [10] has as its system NHDF. The arrangement: method as in PMID 25329549. The following applies: 96 h incubation, MTS; cited from earlier work.

Where two headings read alike, the source gives them in different places.

The values that follow come from PMC5915149, “The role of oxidative stress in activity of anticancer thiosemicarbazones” (Oncotarget, 2018).

Regarding `S=C(NN=C(c1ccccn1)c1ccccn1)N1CCN(c2cnccn2)CC1` [Compound 3c], the IC50 (as a rule, the concentration that gives 50% inhibition) was 4.95 ± 1.64 nM in experiment [1] (20 µM CuSO4 added, read-out: Activity - IC50 HCT116+ Cu^2+); 29.5 ± 3.69 nM in experiment [1] (20 µM FeCl3 added, read-out: Activity - IC50 HCT116+ Fe^3+); 4.41 ± 1.5 nM in [2] (96 h, 20 µM CuSO4 added, read-out: Activity - IC50 MCF-7+ Cu^2+); 16.6 ± 2.25 nM in experiment [2] (96 h, 20 µM FeCl3 added, read-out: Activity - IC50 MCF-7+ Fe^3+); 25.6 ± 6.74 nM in experiment [2] (96 h incubation, MTS, read-out: Activity - IC50 MCF-7); 37.8 ± 3.05 nM in experiment [9]. Moreover, the IC50 in [10] is 13.85 ± 0.03 nM. In [3], the “level of ROS, normalized to untreated cells” value is on record as “only a minute increase”. For the same compound, the “mRNA expression of MnSOD” value in experiment [4] was “large drop”. For the same compound, in experiment [5], the “mRNA expression of Ndrg1” value is “strongest”. In addition, the “expression of p21 protein (densitometric analysis)” value in experiment [6] is recorded as “marked up-regulation”. Besides, the “expression of cdc2 protein (densitometric analysis)” value in experiment [7] is “strongest decreasing effect”. In addition, the “% hypochromism” value in experiment [8] (bound to CT-DNA) turned out to be 28.5%. In experiment [8] (bound to CT-DNA), the Changes in absorbance entry is given as “hypochromism”. Further, the Δε in [8] (bound to CT-DNA) was 3220.0 M⁻¹ cm⁻¹. The blue/red shift in [8] (wavelengths of maximum absorption, compound alone vs DNA-bound) is reported as 2 nm.
